From ChEMBL document CHEMBL1240331, “Chemical genetic interrogation of natural variation uncovers a molecule that is glycoactivated” (Nat Chem Biol, 2007) come the findings set out here.

As a reminder, the IC50 is the concentration needed to halve the response being measured.

Calls of active or inactive are those of the source. No cut-off for these calls is given here. Where only a bound is given, the exact number is not on record here.

Format in all cases: functional, organism-based
Experiment [1] concerns Arabidopsis thaliana. Briefly: Growth inhibition of Arabidopsis thaliana ecotype Co assessed as inhibition of germination.
For experiment [2], the system named is Arabidopsis thaliana. Description: Growth inhibition of Arabidopsis thaliana ecotype Columbia assessed as inhibition of germination at 100 uM.
The subject of experiment [3] is Arabidopsis thaliana. Description: Growth inhibition of Arabidopsis thaliana ecotype LIN assessed as inhibition of germination.
Experiment [4] has as its system Arabidopsis thaliana. Description: Growth inhibition of Arabidopsis thaliana ecotype Ull2-3 assessed as inhibition of germination.
Experiment [5] relates to Arabidopsis thaliana. Description: Growth inhibition of Arabidopsis thaliana ecotype Ra-0 assessed as inhibition of germination.
Experiment [6] concerns Arabidopsis thaliana. Description: Growth inhibition of Arabidopsis thaliana ecotype RRS7 assessed as decrease in root length.
The test system of experiment [7] is Arabidopsis thaliana. Description: Growth inhibition of Arabidopsis thaliana ecotype Columbia assessed as decrease in root length.
The test system of experiment [8] is Arabidopsis thaliana. Description: Growth inhibition of Arabidopsis thaliana ecotype Pog-0 assessed as inhibition of germination.
Experiment [9] deals with Arabidopsis thaliana. Description: Growth inhibition of Arabidopsis thaliana ecotype CSH-1 assessed as inhibition of germination.
In experiment [10] the test system is Arabidopsis thaliana. Briefly: Growth inhibition of Arabidopsis thaliana ecotype Columbia assessed as inhibition of germination.
In experiment [11] the test system is Arabidopsis thaliana. Briefly: Growth inhibition of Arabidopsis thaliana ecotype Rld-2 assessed as decrease in hypocotyl length.
The subject of experiment [12] is Arabidopsis thaliana. Briefly: Growth inhibition of Arabidopsis thaliana ecotype Kyoto assessed as inhibition of germination.
For experiment [13], the system named is Arabidopsis thaliana. Description: Growth inhibition of Arabidopsis thaliana ecotype KZ1 assessed as inhibition of germination.
Experiment [14] has as its system Arabidopsis thaliana. Description: Growth inhibition of Arabidopsis thaliana ecotype Br-0 assessed as inhibition of germination.

Regarding `CCc1ccc(CN2CCCCC2c2cccnc2)cc1` (stereo not drawn), the IC50 with Arabidopsis thaliana [1] amounted to 10 µM. Moreover, the “growth inhibition (GI)” value in the experiment with Arabidopsis thaliana [2] is “inactive”.

As to `O=C(c1ccccc1Cl)c1coc2ccccc2c1=O`, the IC50 in the experiment on Arabidopsis thaliana [3] is no more than 14 µM.

Take `OC(c1ccccc1)(c1ccccc1)c1c[nH]cn1`: in the experiment on Arabidopsis thaliana [4], the IC50 came out at 17 µM. Further, the “growth inhibition (GI)” value in the experiment on Arabidopsis thaliana [2] was “inactive”.

Regarding `CC1CCC(C(C)C)C(=O)/C1=C\c1ccc(N)cc1` (stereo not drawn), the concentration for half-maximal inhibition (IC50) in the experiment on Arabidopsis thaliana [5] is 7 µM. Also, the “growth inhibition (GI)” value in the experiment on Arabidopsis thaliana [2] is “inactive”.

As to `Cc1ccc(C(C)C)c(OCC(=O)N/N=C/c2cccnc2)c1` [CHUBOXYPYR], the results for the IC50 with Arabidopsis thaliana [6] and in the experiment with Arabidopsis thaliana [7] were 22 µM and 80 µM, respectively.

On to `COc1ccc2occ(C(=O)c3ccccc3Cl)c(=O)c2c1`, for which the half-maximal inhibitory concentration (IC50) in the experiment with Arabidopsis thaliana [8] was found to be 3 µM.

On to `CCOc1ccc(S(=O)(=O)NCc2ccccn2)c2ccccc12` [PYRABACTIN B], for which the results for the concentration for half-maximal inhibition (IC50) in the experiment on Arabidopsis thaliana [9] and in the experiment on Arabidopsis thaliana [10] were 2.5 µM and 8.4 µM, respectively.

Turning to `CCOC(=O)N1CCN(c2cc(C)c3ccc(Cl)cc3n2)CC1` [POLARAZINE], the concentration for half-maximal inhibition (IC50) in the experiment with Arabidopsis thaliana [11] was determined as 13 µM.

Turning to `CCN(CC)c1ccc(C(=O)c2ccccc2C(=O)O)c(O)c1`, the half-inhibitory concentration (IC50) in the experiment with Arabidopsis thaliana [12] came out at 12.5 µM. Also, the “growth inhibition (GI)” value in the experiment with Arabidopsis thaliana [2] was “inactive”.

With `O=S(=O)(NCc1ccccn1)c1ccc(Br)c2ccccc12` [PYRABACTIN A], the half-maximal inhibitory concentration (IC50) in the experiment with Arabidopsis thaliana [13] was 2.2 µM.

`O=[N+]([O-])c1ccc(CN2CCCCC2c2cccnc2)cc1` (stereo not drawn): the IC50 with Arabidopsis thaliana [14] was determined as 3 µM. Also, the “growth inhibition (GI)” value in the experiment on Arabidopsis thaliana [2] is “inactive”.
